Data reported in patent publication EP0159254A1, “Derivatives of omega-mercaptopropanamide and their salts, their preparation, their use as medicines and compositions containing them” (ROUSSEL-UCLAF, priority 1984, dated 1985).
pIC50: −log10 of the molar value.

Target: T1, enképhalinase (Rattus norvegicus, UniProt P07861)
T1 construct: L'activité de l'enképhalinase est déterminée dans une fraction membranaire de striatum de rat; from tissue; host or cells: rat striatum, particulate (membrane) fraction
T1 sequence (P07861 1-750): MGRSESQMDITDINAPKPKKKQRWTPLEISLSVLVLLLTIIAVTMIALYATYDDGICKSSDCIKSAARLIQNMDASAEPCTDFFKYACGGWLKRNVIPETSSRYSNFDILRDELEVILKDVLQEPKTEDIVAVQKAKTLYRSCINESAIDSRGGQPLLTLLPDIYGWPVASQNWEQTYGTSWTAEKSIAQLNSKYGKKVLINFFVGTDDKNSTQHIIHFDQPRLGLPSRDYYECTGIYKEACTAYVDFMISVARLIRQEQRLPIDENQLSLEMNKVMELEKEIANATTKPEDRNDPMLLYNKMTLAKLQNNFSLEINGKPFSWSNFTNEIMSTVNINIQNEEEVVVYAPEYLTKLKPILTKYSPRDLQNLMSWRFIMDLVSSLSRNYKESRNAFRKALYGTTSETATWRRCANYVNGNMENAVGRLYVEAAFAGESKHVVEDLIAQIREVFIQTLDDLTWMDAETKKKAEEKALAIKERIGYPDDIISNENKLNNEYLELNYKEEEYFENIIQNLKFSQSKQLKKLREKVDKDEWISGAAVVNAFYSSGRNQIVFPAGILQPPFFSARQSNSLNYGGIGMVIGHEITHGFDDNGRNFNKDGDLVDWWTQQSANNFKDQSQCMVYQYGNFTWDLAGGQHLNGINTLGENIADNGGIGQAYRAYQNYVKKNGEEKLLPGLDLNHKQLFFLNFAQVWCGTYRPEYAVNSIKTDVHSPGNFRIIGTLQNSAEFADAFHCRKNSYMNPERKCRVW
Assay: Enkephalinase assay and determination of the effect of inhibitors (hydrolysis of tritiated leucine-enkephalin)
Assay type: biochemical
Conditions: membrane fraction of rat striatum; 20 nanomoles tritiated leucine-enkephalin, 1 mM puromycin, TRIS buffer, 15 min at 25°C; read-out: Inhibition de l'enképhalinase CI 50
Experimental: 1) Dosage de l'enképhalinase et détermination de l'effet des inhibiteurs.
L'activité de l'enképhalinase est déterminée dans une fraction membranaire de striatum de rat.
Les striatum sont prélevés sur glace et homogénéisés en tampon TRIS 0.05M pH 7,4 (20 fois le volume). Après une première centrifugation à 1000 g, la fraction particulaire est obtenue à la suite de deux centrifugations de 10 minutes à 20 000 g. Le culot est ensuite mis en suspension dans un tampon TRIS et conservé à 4°C. Le dosage des protéines est effectué selon la méthode au bleu de Comassie.
Après une préincubation de 15 minutes à 25°C, une aliquote de protéines est incubée pendant 15 minutes à 25°C en présence de 20 nanomoles de leucine-enképhaline tritiée (sur le premier acide aminé) préalablement purifiée, d'1 mM de puromycine et du produit à tester en tampon TRIS. La réaction d'hydrolyse est stoppée par addition d'acide chlorhydrique 0,2N et l'incubat subit une déprotéinisation par la chaleur (15 minutes à 95°C).
Les métabolites tritiés obtenus par hydrolyse sont séparés de l'enképhaline par chromatographie sur colonne de porapak Q : ils sont élués avec du tampon TRIS tandis que l'enképhaline est retenue sur la colonne et recueillie ensuite en phase éthanolique.
L'activité des différents produits est exprimée en concentrations inhibitrices 50 %.

`O=C(NCc1ccncc1)C(CS)Cc1ccccc1` (stereo not drawn) [Exemple 24, Chlorhydrate d'α-(mercaptométhyl) N-/(pyridin-4-yl) méthyl/ benzène propanamide] and “Chlorhydrate d'α-(mercaptométhyl) N-/(pyridin-3-yl) méthyl/ benzène propanamide [Exemple 22]” are the same in pIC50: 7.10 for the first, 7.10 for the second.

`O=C(NC1CCCCC1)C(CS)Cc1ccccc1` (stereo not drawn) [Exemple 2, N-cyclohexyl α-(mercaptométhyl) benzène propanamide] and `O=C(NCc1ccccn1)C(CS)Cc1ccccc1` (stereo not drawn) [Exemple 26, Chlorhydrate d'α-(mercaptométhyl) N-/(Pyridin-2-yl) méthyl/benzène propanamide] are the same in pIC50: 7.00 for the first, 7.00 for the second.

With `O=C(NCCc1ccccc1)C(CS)Cc1ccccc1` (stereo not drawn) [Exemple 8, α -(mercaptométhyl) N-(2-phényl éthyl) benzène propanamide] the pIC50 was 6.00.
